In the supplement of paper PMC10307832:

Columns and labels:
Test in all cases: relative viability (nuclei count vs DMSO), 5 days (fraction); higher = more cells survive
[1] = compound: CCN(CCO)CCCC(C)Nc1ccnc2cc(Cl)ccc12 [Hydroxychloroquine]
In short: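 Viability was read as treated-well nuclei divided by vehicle-well nuclei, using the median across plates. Lung cancer cell lines in 1536-well plates were kept overnight at 37 °C, pinned with five √10-spaced library-drug doses, and after 5 days were Hoechst-stained, imaged at 4× and counted in MetaXpress. Plates passed only with control CV below 25% and at least one doubling.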

[2] = compound: CCN(CCO)CCCC(C)Nc1ccnc2cc(Cl)ccc12 [Hydroxychloroquine] + CC1(C)CCC(c2ccc(Cl)cc2)=C(CN2CCN(c3ccc(C(=O)NS(=O)(=O)c4ccc(N[C@H](CCN5CCOCC5)CSc5ccccc5)c(S(=O)(=O)C(F)(F)F)c4)cc3)CC2)C1 [Navitoclax] (partner 0.5 µM)
In short: (§1)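 Lung cancer cell lines in 1536-well plates got either a single drug or a fixed anchor-drug dose together with five library-drug doses (not always all listed) in √10 steps, by pin tool, on the day after seeding. Nuclei were counted after 5 days, and relative viability is the treated-to-vehicle ratio of nuclei counts. Values are medians of duplicate plates.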

[3] = compound: CCN(CCO)CCCC(C)Nc1ccnc2cc(Cl)ccc12 [Hydroxychloroquine] + Cc1cc(Nc2cc(N3CCN(C)CC3)nc(Sc3ccc(NC(=O)C4CC4)cc3)n2)n[nH]1 [Tozasertib] (partner 0.1 µM)
In short: as §1

[4] = compound: CCN(CCO)CCCC(C)Nc1ccnc2cc(Cl)ccc12 [Hydroxychloroquine] + N=C(N)NC(=N)NCCc1ccccc1 [Phenformin] (partner 250 µM)
In short: as §1

| Cell Line | relative viability ([1]; 0.5 µM) | relative viability ([1]; 1.581 µM) | relative viability ([1]; 5 µM) | relative viability ([1]; 15.81 µM) | relative viability ([1]; 50 µM) | relative viability ([2]; first compound 0.5 µM) | relative viability ([2]; first compound 1.581 µM) | relative viability ([2]; first compound 5 µM) | relative viability ([2]; first compound 15.81 µM) | relative viability ([2]; first compound 50 µM) | relative viability ([3]; first compound 0.5 µM) | relative viability ([3]; first compound 1.581 µM) | relative viability ([3]; first compound 15.81 µM) | relative viability ([3]; first compound 50 µM) | relative viability ([4]; first compound 0.5 µM) | relative viability ([4]; first compound 1.581 µM) | relative viability ([4]; first compound 15.81 µM) | relative viability ([4]; first compound 50 µM) | relative viability ([3]; first compound 5 µM) | relative viability ([4]; first compound 5 µM) |
| --- | --- | --- | --- | --- | --- | --- | --- | --- | --- | --- | --- | --- | --- | --- | --- | --- | --- | --- | --- | --- |
| LK-2 | 1.01 | 0.96 | 0.941 | 1.14 | 1.24 | 0.777 | 0.763 | 0.809 | 0.914 | 0.632 | 0.176 | 0.167 | 0.176 | 0.154 | 0.37 | 0.314 | 0.33 | 0.574 |  |  |
| LOU-NH91 | 0.96 | 0.794 | 0.944 | 0.95 | 0.901 | 0.679 | 0.543 | 0.742 | 0.676 | 0.826 | 0.651 | 0.6 | 0.692 | 0.723 | 0.704 | 0.562 | 0.732 | 0.466 | 0.687 | 0.679 |
| LU99A | 1.01 | 0.874 | 0.938 | 0.951 | 1.02 | 0.858 | 0.707 | 0.93 | 0.679 | 0.749 | 0.243 | 0.229 | 0.256 | 0.284 | 0.765 | 0.735 | 0.751 | 0.799 | 0.281 | 0.873 |
| LXF-289 | 1.06 | 1.01 | 1.03 | 1.02 | 1.07 | 0.956 | 0.986 | 0.983 | 0.948 | 0.999 | 0.172 | 0.17 | 0.176 | 0.193 | 0.533 | 0.513 | 0.505 | 0.495 | 0.2 | 0.517 |
| NCI-H23 | 1.04 | 0.809 | 0.961 | 0.915 | 1.01 | 0.841 | 0.822 | 0.842 | 0.732 | 0.953 | 0.56 | 0.337 | 0.65 | 0.424 | 0.803 | 0.76 | 0.797 | 0.829 | 0.41 | 0.806 |
| NCI-H322M | 0.955 | 0.933 | 0.957 | 0.935 | 0.983 | 1 | 1.15 | 1.12 | 1.15 | 1.43 | 0.506 | 0.478 | 0.547 | 0.49 | 0.704 | 0.799 | 0.743 | 0.744 | 0.484 | 0.786 |
| NCI-H441 | 1.05 | 0.926 | 1.33 | 1.13 | 1.03 |  | 0.767 | 0.52 | 0.707 | 0.671 | 0.759 | 0.578 | 0.879 | 0.591 | 0.922 | 0.726 | 0.94 | 0.944 | 0.61 | 0.815 |
| NCI-H460 | 0.973 | 1 | 1.01 | 1.03 | 1.11 | 1.24 | 1.35 | 1.19 | 1.36 | 1.41 | 0.515 | 0.4 | 0.413 | 0.516 | 0.506 | 0.533 | 0.518 | 0.635 | 0.377 | 0.577 |
| NCI-H520 | 1.07 | 1.01 | 0.906 | 0.923 | 1.07 | 1.12 | 1.16 | 1.13 | 1.03 | 1.2 | 0.45 | 0.39 | 0.465 | 0.41 | 0.539 | 0.403 | 0.683 | 0.628 | 0.442 | 0.649 |
| NCI-H596 | 1.04 | 0.934 | 0.892 | 1.03 | 1.15 | 0.857 | 0.853 | 0.933 | 0.979 | 0.998 | 1.16 | 0.994 | 0.865 | 0.987 | 0.69 | 0.66 | 0.835 | 0.908 | 0.858 | 0.784 |
| NCI-H647 | 1 | 1.07 | 0.894 | 0.816 | 0.975 | 1.23 | 0.938 | 1.29 | 1.19 | 1.31 | 0.263 | 0.357 | 0.346 | 0.272 | 0.503 | 0.556 | 0.63 | 0.661 | 0.278 | 0.441 |
| NCI-H727 | 1.04 | 0.815 | 1.04 | 0.898 | 0.911 | 0.456 | 0.399 | 0.482 | 0.357 | 0.406 | 0.646 | 0.509 | 0.561 | 0.593 | 0.514 | 0.424 | 0.618 | 0.532 | 0.597 | 0.407 |
| NCI-H838 | 1.02 | 0.958 | 0.984 | 0.975 | 1.12 | 1.16 | 1.11 | 1.13 | 1.14 | 1.24 | 0.234 | 0.241 | 0.281 | 0.281 | 0.636 | 0.561 | 0.595 | 0.613 | 0.23 | 0.548 |
| NCI-H1355 | 1.04 | 0.956 | 1 | 0.983 | 1.05 | 0.891 | 0.879 | 0.876 | 0.991 | 1.01 | 0.616 | 0.493 | 0.557 | 0.508 | 0.431 | 0.408 | 0.442 | 0.425 | 0.513 | 0.457 |
| NCI-H1395 | 0.887 | 0.847 | 0.81 | 0.83 | 0.854 | 1.21 | 1.05 | 1.17 | 1.18 | 1.01 | 0.74 | 0.717 | 0.824 | 0.723 | 0.465 | 0.445 | 0.456 | 0.43 | 0.73 | 0.451 |
| NCI-H1437 | 0.994 | 1 | 0.926 | 0.997 | 1.04 | 1.08 | 1.1 | 1.11 | 1.14 | 1.11 | 0.395 | 0.42 | 0.438 | 0.427 | 0.304 | 0.316 | 0.297 | 0.31 | 0.426 | 0.31 |
